Values after ≈ are worked out from the molar mass of the structure shown.
Tests used:
[1] = molecular target: T1, CYP3A4 (Homo sapiens (Human), UniProt P08684); experiment: CYP inhibition test, CYP3A4; format: in vitro ADME; details: pooled human liver microsomes; terfenadine hydroxylation; given as 'five kinds'
From the text: (§1) Using commercially available pooled human hepatic microsome, and employing, as markers, 7-ethoxyresorufin O-deethylation (CYP1A2), tolbutamide methyl-hydroxylation (CYP2C9), mephenytoin 4'-hydroxylation (CYP2C19), dextromethorphan 0-demethylation (CYP2D6), and terfenadine hydroxylation (CYP3A4) as typical substrate metabolism reactions of human main five CYP enzyme forms (CYP1A2, 2C9, 2C19, 2D6, 3A4), an inhibitory degree of each metabolite production amount by the compound of the present invention was assessed. The reaction conditions are as follows: substrate, 0.5 μmol/L ethoxyresorufin (CYP1A2), 100 μmol/L tolbutamide (CYP2C9), 50 μmol/L S-mephenitoin (CYP2C19), 5 μmol/L dextromethorphan (CYP2D6), 1 μmol/L terfenedine (CYP3A4); reaction time, 15 minutes; reaction temperature, 37° C.; enzyme, pooled human liver microsomes 0.2 mg protein/mL; concentrations of the compound of the present invention, 1, 5, 10, 20 μmol/L (four points). As a reaction solution, each five kinds of substrates, human liver microsomes, or compound of the present invention in 50 mmol/L Hepes buffer were added to a 96-well plate at the composition as described above, and NADPH, as a cofactor was added to initiate metabolism reactions. After the incubation at 37° C. for 15 minutes, a methanol/acetonitrile=1/[…]) solution was added to stop the reaction. After the centrifugation at 3000 rpm for 15 minutes, resorufin (CYP1A2 metabolite) in the supernatant was quantified by a fluorescent multilabel counter or LC/MS/MS, and tolbutamide hydroxide (CYP2C9 metabolite), mephenytoin 4' hydroxide (CYP2C19 metabolite), dextrorphan (CYP2D6 metabolite), and terfenadine alcohol (CYP3A4 metabolite) were quantified by LC/MS/MS. Addition of only DMSO being a solvent dissolving a drug to a reaction system was adopted as a control (100%). Remaining activity (%) was calculated. IC50 was calculated by reverse presumption by a logistic model using the concentration and an inhibition rate.

[2] = molecular target: CYP1A2 (Homo sapiens (Human), UniProt P05177); experiment: CYP inhibition test, CYP1A2; format: in vitro ADME; details: pooled human liver microsomes; 7-ethoxyresorufin O-deethylation; given as 'five kinds'
From the text: as §1

[3] = molecular target: T1, CYP3A4; experiment: CYP3A4 (MDZ) MBI test; format: in vitro ADME; details: pooled human liver microsomes; midazolam 1-hydroxylation; preincubation 0 vs 30 min
Method: CYP3A4 (MDZ) MBI test is a test of investigating mechanism based inhibition (MBI) potential on CYP3A4 by the enhancement of inhibitory degree of a metabolic reaction caused by the compound of the present invention. CYP3A4 inhibition was evaluated using pooled human liver microsomes by 1-hydroxylation reaction of midazolam (MDZ) as a marker reaction.
The reaction conditions are as follows: substrate, 10 μmol/L MDZ; pre-reaction time, 0 or 30 minutes; substrate reaction time, 2 minutes; reaction temperature, 37° C.; protein content of pooled human liver microsomes, at pre-reaction time 0.5 mg/mL, at reaction time 0.05 mg/mL (at 10-fold dilution); concentrations of the compound of the present invention, at pre-reaction time 1, 5, 10, 20 μmol/L (four points).
Pooled human liver microsomes and a solution of the compound of the present invention in K-Pi buffer (pH 7.4) as a pre-reaction solution were added to a 96-well plate at the composition of the pre-reaction. A part of pre-reaction solution was transferred to another 96-well plate, and 1/10 diluted by K-Pi buffer containing a substrate. NADPH as a co-factor was added to initiate a reaction as a marker reaction (without pre-reaction). After a predetermined time of a reaction, methanol/acetonitrile=1/1 (V/V) solution was added to stop the reaction. In addition, NADPH was added to a remaining pre-reaction solution to initiate a pre-reaction (with pre-reaction). After a predetermined time of a pre-reaction, a part was transferred to another plate, and 1/10 diluted by K-Pi buffer containing a substrate to initiate a reaction as a marker reaction. After a predetermined time of a reaction, methanol/acetonitrile=1/1 (V/V) solution was added in order to stop the reaction. The plate on which each index reaction had been performed was centrifuged at 3000 rpm for 15 minutes, and thereafter 1-hydroxylated midazolam in the supernatant was quantified by LC/MS/MS.
The sample adding DMSO as a solvent to a reaction system instead of a solution dissolving the compound of the present invention was adopted as a control (100%). Remaining activity (%) was calculated at each concentration of the compound of the present invention compared to a control, and IC value was calculated by reverse-presumption by a logistic model using a concentration and an inhibition rate. IC at Preincubation 0 min/IC at Preincubation 30 min was defined as a value of Shifted IC, and a case that Shifted IC was 1.5 or more was regarded as Positive, and a case that Shifted IC was 1.0 or less was regarded as Negative.

[4] = molecular target: CYP2D6 (Homo sapiens (Human), UniProt P10635); experiment: CYP inhibition test, CYP2D6; format: in vitro ADME; details: pooled human liver microsomes; dextromethorphan O-demethylation; given as 'five kinds'
From the text: as §1

[5] = molecular target: CYP2C19 (Homo sapiens (Human), UniProt P33261); experiment: CYP inhibition test, CYP2C19; format: in vitro ADME; details: pooled human liver microsomes; mephenytoin 4′-hydroxylation; given as 'five kinds'
From the text: as §1

[6] = molecular target: CYP2C9 (Homo sapiens (Human), UniProt P11712); experiment: CYP inhibition test, CYP2C9; format: in vitro ADME; details: pooled human liver microsomes; tolbutamide methyl-hydroxylation; given as 'five kinds'
From the text: as §1

[7] = Solubility test (1% DMSO addition, pH 6.8 artificial intestinal juice); format: physicochemical; details: kinetic from dmso stock, 16 hours at 25° C.

Sequence of CYP2D6 (P10635 whole entry): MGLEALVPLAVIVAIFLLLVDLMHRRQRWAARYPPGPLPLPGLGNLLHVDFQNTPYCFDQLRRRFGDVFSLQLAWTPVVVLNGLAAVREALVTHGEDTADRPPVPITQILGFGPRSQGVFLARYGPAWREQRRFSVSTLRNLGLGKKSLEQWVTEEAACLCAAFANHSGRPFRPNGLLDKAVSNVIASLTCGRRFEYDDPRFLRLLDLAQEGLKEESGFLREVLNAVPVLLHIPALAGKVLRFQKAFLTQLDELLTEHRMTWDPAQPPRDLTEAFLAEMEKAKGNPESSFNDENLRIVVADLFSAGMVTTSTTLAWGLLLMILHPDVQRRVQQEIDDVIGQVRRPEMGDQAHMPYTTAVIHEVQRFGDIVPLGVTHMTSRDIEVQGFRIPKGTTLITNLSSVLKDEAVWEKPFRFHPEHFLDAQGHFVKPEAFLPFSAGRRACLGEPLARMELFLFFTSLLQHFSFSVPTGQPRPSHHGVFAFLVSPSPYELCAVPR
Sequence of CYP2C9 (P11712 whole entry): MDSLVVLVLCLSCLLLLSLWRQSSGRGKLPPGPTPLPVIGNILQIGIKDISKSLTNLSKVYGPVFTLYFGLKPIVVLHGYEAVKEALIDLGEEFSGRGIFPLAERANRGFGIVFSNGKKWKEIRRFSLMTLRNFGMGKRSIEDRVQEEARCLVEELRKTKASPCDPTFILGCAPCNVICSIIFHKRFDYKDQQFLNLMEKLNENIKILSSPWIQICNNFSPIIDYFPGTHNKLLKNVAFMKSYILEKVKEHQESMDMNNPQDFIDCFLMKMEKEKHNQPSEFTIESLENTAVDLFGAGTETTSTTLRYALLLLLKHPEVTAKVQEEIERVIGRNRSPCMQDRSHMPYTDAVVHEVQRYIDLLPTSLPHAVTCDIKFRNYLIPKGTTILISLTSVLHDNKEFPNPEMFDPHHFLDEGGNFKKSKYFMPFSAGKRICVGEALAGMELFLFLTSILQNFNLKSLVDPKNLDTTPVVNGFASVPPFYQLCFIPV
Sequence of CYP2C19 (P33261 whole entry): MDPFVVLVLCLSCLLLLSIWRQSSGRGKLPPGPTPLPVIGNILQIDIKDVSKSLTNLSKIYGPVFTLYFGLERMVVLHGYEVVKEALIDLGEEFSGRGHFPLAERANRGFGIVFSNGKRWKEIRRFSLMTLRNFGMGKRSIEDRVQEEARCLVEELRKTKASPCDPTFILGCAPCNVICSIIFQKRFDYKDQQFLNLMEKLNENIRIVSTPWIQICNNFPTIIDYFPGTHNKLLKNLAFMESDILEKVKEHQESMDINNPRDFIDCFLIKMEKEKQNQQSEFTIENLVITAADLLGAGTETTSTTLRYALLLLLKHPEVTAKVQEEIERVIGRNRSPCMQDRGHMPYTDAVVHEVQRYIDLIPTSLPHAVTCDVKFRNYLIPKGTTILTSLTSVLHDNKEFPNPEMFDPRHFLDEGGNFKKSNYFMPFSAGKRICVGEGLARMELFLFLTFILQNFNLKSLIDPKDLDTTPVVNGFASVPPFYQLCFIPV
Sequence of CYP1A2 (P05177 whole entry): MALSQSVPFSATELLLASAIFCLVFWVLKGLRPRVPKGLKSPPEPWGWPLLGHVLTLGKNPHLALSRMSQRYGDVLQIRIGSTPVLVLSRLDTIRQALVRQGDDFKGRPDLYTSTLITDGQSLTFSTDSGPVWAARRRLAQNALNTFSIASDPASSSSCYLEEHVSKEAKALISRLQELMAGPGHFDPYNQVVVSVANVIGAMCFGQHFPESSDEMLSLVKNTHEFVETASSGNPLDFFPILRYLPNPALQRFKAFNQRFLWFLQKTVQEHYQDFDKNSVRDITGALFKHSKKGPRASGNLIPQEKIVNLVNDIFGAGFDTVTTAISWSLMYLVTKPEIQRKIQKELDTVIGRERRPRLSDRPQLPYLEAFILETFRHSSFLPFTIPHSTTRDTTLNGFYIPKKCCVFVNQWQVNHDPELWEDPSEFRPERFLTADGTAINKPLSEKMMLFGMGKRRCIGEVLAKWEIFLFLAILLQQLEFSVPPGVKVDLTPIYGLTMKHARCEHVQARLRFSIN
T1 sequence (P08684 whole entry): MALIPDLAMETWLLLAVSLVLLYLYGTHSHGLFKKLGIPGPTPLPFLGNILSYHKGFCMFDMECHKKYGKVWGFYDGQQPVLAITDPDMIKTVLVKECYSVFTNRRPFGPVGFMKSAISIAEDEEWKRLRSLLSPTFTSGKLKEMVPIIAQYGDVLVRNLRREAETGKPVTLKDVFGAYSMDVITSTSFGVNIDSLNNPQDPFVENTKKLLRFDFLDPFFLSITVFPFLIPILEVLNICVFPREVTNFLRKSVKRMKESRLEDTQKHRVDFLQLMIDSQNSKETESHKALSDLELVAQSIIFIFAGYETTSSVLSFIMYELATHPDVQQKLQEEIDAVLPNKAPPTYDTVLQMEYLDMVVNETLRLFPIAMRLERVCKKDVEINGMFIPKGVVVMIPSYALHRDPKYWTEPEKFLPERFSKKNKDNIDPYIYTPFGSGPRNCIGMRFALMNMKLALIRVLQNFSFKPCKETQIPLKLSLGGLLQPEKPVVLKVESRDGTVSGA

Row | Structure (SMILES) | IC50 [1] [µM] | IC50 [2] [µM] | IC50 [4] [µM] | IC50 [5] [µM] | IC50 [6] [µM] | solubility at 16 h [7] [µM] | CYP3A4 (MDZ) MBI (Shifted IC judgement) [3]
1 | CS(=O)(=O)CC(=O)Nc1c(CCC2CC2)nn2c1C(=O)N[C@@]1(CCc3cc(OCC(F)(F)F)ccc31)C2 [Compound I-46] | > 20 | > 20 | > 20 | > 20 | > 20 | > 50 | Negative (a case that Shifted IC was 1.0 or less was regarded as Negative)
2 | CS(=O)(=O)CC(=O)Nc1c(CCC(F)(F)F)nn2c1C(=O)N[C@@]1(CCc3cc(OCC(F)(F)F)ccc31)C2 [Compound I-58] | > 20 | > 20 | > 20 | > 20 | > 20 | > 50 | Negative (a case that Shifted IC was 1.0 or less was regarded as Negative)
3 | N#Cc1ccc(-c2nn3c(c2NC(=O)CC(F)(F)F)C(=O)N[C@@]2(CCc4cc(OCC(F)(F)F)ccc42)C3)nc1 [Compound I-14] | > 20 | > 20 | > 20 | > 20 | > 20 | 41.8 (≈ 23.6 µg/mL) | Negative (a case that Shifted IC was 1.0 or less was regarded as Negative)

More lines, main results first:

Row | IC50 [1] [µM] | IC50 [2] [µM] | IC50 [4] [µM] | IC50 [5] [µM] | IC50 [6] [µM] | solubility at 16 h [7] [µM] | Structure (SMILES) | CYP3A4 (MDZ) MBI (Shifted IC judgement) [3]
4 | > 20 | > 20 | > 20 | > 20 | > 20 |  | Cc1ccc(-c2nn3c(c2NC(=O)CS(C)(=O)=O)C(=O)N[C@@]2(CCc4cc(OCC(F)(F)F)ccc42)C3)cc1 [Compound I-20] | Negative (a case that Shifted IC was 1.0 or less was regarded as Negative)
5 | > 20 | > 20 | > 20 | > 20 | > 20 | > 50 | Cc1ccc(-c2nn3c(c2NC(=O)CS(C)(=O)=O)C(=O)N[C@@]2(CCc4cc(OCC(F)(F)F)ccc42)C3)nc1 [Compound I-6] | Negative (a case that Shifted IC was 1.0 or less was regarded as Negative)

— patent US12227509B2, “Dihydropyrazolopyrazinone derivative having MGAT2 inhibitory activity” (Shionogi & Co., Ltd., priority 2019, dated 2025)
